Measurements reported in patent publication US4450269A, “Mono-5-substituted-3-chloro-4H-1,2,6-thiadiazin-4-one antifungal agents” (FMC Corporation, priority 1980, dated 1984).
Where a name gives a salt, the structure may show the parent alone.

Columns and labels:
Botrytis cinerea = assay: Spore germination test; assay type: cell-based; conditions: BC, 48 hours
Summary of the method: (§1)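 Compound in acetone was mixed into water agar at final 40, 10, 2.5 and 1 ppm and poured into quadrant dishes. Quadrants received spore suspension, while Erysiphe polygoni and Uromyces phaseoli spores were brushed on from infected leaves. After 48 h at 24 °C, the percentage of germinated spores was converted to a germination rating.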

Alternaria solani = assay: Spore germination test; assay type: cell-based; conditions: AS, 48 hours
Summary of the method: as §1

Compound | Spore Germination Rating (Botrytis cinerea; 1.0 ppm) | Spore Germination Rating (Botrytis cinerea; 2.5 ppm) | Spore Germination Rating (Botrytis cinerea; 10 ppm) | Spore Germination Rating (Botrytis cinerea; 40 ppm) | Spore Germination Rating (Alternaria solani; 1.0 ppm) | Spore Germination Rating (Alternaria solani; 2.5 ppm) | Spore Germination Rating (Alternaria solani; 10 ppm) | Spore Germination Rating (Alternaria solani; 40 ppm) | Spore Germination Rating (Botrytis cinerea; 1.0 ppm, hydrochloride) | Spore Germination Rating (Alternaria solani; 2.5 ppm, hydrochloride) | Spore Germination Rating (Alternaria solani; 10 ppm, hydrochloride)
O=c1c(Cl)nsnc1Oc1ccc(Br)cc1 [Compound 15, 3-chloro-5-(4-bromophenoxy)-4H--1,2,6-thiadiazin-4-one] | 4 (80-100) | 1 (10-40) | 0 (0-10) | 0 (0-10) | 4 (80-100) | 1 (10-40) | 0 (0-10) | 0 (0-10) |  |  | 
O=c1c(Cl)nsnc1Oc1ccc(Cl)c(Cl)c1 [Compound 16, 3-chloro-5-(3,4-dichlorophenoxy)-4H--1,2,6-thiadiazin-4-one] | 4 (80-100) | 1 (10-40) | 0 (0-10) | 1 (10-40) | 1 (10-40) | 0 (0-10) | 0 (0-10) | 0 (0-10) |  |  | 
O=c1c(Cl)nsnc1Oc1ccc(Cl)cc1Cl [Compound 17, 3-chloro-5-(2,4-dichlorophenoxy)-4H--1,2,6-thiadiazin-4-one] | 4 (80-100) | 0 (0-10) | 0 (0-10) | 0 (0-10) | 2 (40-60) | 1 (10-40) | 0 (0-10) | 0 (0-10) |  |  | 
O=c1c(Cl)nsnc1Oc1c(Cl)cccc1Cl [Compound 18, 3-chloro-5-(2,6-dichlorophenoxy)-4H--1,2,6-thiadiazin-4-one] | 4 (80-100) | 1 (10-40) | 0 (0-10) | 0 (0-10) | 3 (60-80) | 2 (40-60) | 1 (10-40) | 0 (0-10) |  |  | 
O=c1c(Cl)nsnc1Oc1cccc(Cl)c1Cl [Compound 19, 3-chloro-5-(2,3-dichlorophenoxy)-4H--1,2,6-thiadiazin-4-one] | 4 (80-100) | 1 (10-40) | 0 (0-10) | 0 (0-10) | 3 (60-80) | 3 (60-80) | 0 (0-10) | 0 (0-10) |  |  | 
O=c1c(Cl)nsnc1Oc1cc(Cl)cc(Cl)c1 [Compound 20, 3-chloro-5-(3,5-dichlorophenoxy)-4H--1,2,6-thiadiazin-4-one] | 4 (80-100) | 0 (0-10) | 0 (0-10) | 0 (0-10) | 2 (40-60) | 0 (0-10) | 0 (0-10) | 0 (0-10) |  |  | 
Cc1cccc(Oc2nsnc(Cl)c2=O)c1 [Compound 21, 3-chloro-5-(3-methylphenoxy)-4H--1,2,6-thiadiazin-4-one] | 4 (80-100) | 3 (60-80) | 0 (0-10) | 0 (0-10) | 3 (60-80) | 1 (10-40) | 0 (0-10) | 0 (0-10) |  |  | 
Cc1ccccc1Oc1nsnc(Cl)c1=O [Compound 22, 3-chloro-5-(2-methylphenoxy)-4H--1,2,6-thiadiazin-4-one] | 2 (40-60) | 0 (0-10) | 0 (0-10) | 0 (0-10) | 3 (60-80) | 0 (0-10) | 0 (0-10) | 0 (0-10) |  |  | 
Cc1ccc(Oc2nsnc(Cl)c2=O)c(C)c1 [Compound 23, 3-chloro-5-(2,4-dimethylphenoxy)-4H--1,2,6-thiadiazin-4-one] | 4 (80-100) | 4 (80-100) | 4 (80-100) | 0 (0-10) | 3 (60-80) | 3 (60-80) | 0 (0-10) | 0 (0-10) |  |  | 
Cc1cccc(C)c1Oc1nsnc(Cl)c1=O [Compound 24, 3-chloro-5-(2,6-dimethylphenoxy)-4H--1,2,6-thiadiazin-4-one] | 3 (60-80) | 1 (10-40) | 0 (0-10) | 0 (0-10) | 1 (10-40) | 1 (10-40) | 0 (0-10) | 0 (0-10) |  |  | 
Cc1cc(C)cc(Oc2nsnc(Cl)c2=O)c1 [Compound 25, 3-chloro-5-(3,5-dimethylphenoxy)-4H--1,2,6-thiadiazin-4-one] | 2 (40-60) | 1 (10-40) | 0 (0-10) | 0 (0-10) | 4 (80-100) | 2 (40-60) | 0 (0-10) | 0 (0-10) |  |  | 
Nc1ccc(Oc2nsnc(Cl)c2=O)cc1 [Compound 26, 5-(4-aminophenoxy)-3-chloro-4H--1,2,6-thiadiazin-4-one] | 0 (0-10) | 0 (0-10) | 0 (0-10) | 0 (0-10) | 4 (80-100) | 3 (60-80) | 0 (0-10) | 0 (0-10) |  |  | 
Nc1ccc(Oc2nsnc(Cl)c2=O)cc1 [Compound 27, 5-(4-aminophenoxy)-3-chloro-4H--1,2,6-thiadiazine-4-one hydrochloride] |  |  |  |  |  |  |  |  | 1 (10-40) | 4 (80-100) | 3 (60-80)
CNC(=O)Nc1ccc(Oc2nsnc(Cl)c2=O)cc1 [Compound 28, 3-chloro-5-[4-(3-methylureido)-phenoxy]-4H--1,2,6-thiadiazin-4-one] | 4 (80-100) | 1 (10-40) | 0 (0-10) | 0 (0-10) | 4 (80-100) | 4 (80-100) | 4 (80-100) | 4 (80-100) |  |  | 
O=C(Nc1ccccc1)Nc1ccc(Oc2nsnc(Cl)c2=O)cc1 [Compound 29, 3-chloro-5-[4-(3-phenylureido)-phenoxy]-4H--1,2,6-thiadiazin-4-one] | 3 (60-80) | 3 (60-80) | 2 (40-60) | 2 (40-60) | 4 (80-100) | 4 (80-100) | 4 (80-100) | 4 (80-100) |  |  | 
O=c1c(Cl)nsnc1Oc1c(Cl)cc(Cl)cc1Cl [Compound 30, 3-chloro-5-(2,4,6-trichlorophenoxy)-4H--1,2,6-thiadiazin-4-one] | 0 (0-10) | 0 (0-10) | 0 (0-10) | 0 (0-10) | 3 (60-80) | 0 (0-10) | 0 (0-10) | 0 (0-10) |  |  | 
O=c1c(Cl)nsnc1Oc1c(Cl)c(Cl)c(Cl)c(Cl)c1Cl [Compound 31, 3-chloro-5-(pentachlorophenoxy)-4H--1,2,6-thiadiazine-4-one] | 1 (10-40) | 1 (10-40) | 1 (10-40) | 0 (0-10) | 4 (80-100) | 1 (10-40) | 0 (0-10) | 0 (0-10) |  |  | 
O=c1c(Cl)nsnc1Oc1cccc2ccccc12 [Compound 32, 3-chloro-5(1-naphthoxy)-4H-1,2,6-thiadiazin-4-one] | 2 (40-60) | 0 (0-10) | 0 (0-10) | 0 (0-10) | 3 (60-80) | 1 (10-40) | 0 (0-10) | 0 (0-10) |  |  | 
O=c1c(Cl)nsnc1Oc1ccccc1Br [Compound 34, 3-chloro-5-(2-bromophenoxy)-4H-1,2,6,-thiadiazin-4-one] | 2 (40-60) | 0 (0-10) | 0 (0-10) | 0 (0-10) | 4 (80-100) | 1 (10-40) | 0 (0-10) | 0 (0-10) |  |  | 
